The target in series [1] is T1, Au(III) embedded MspA-M (Mycolicibacterium smegmatis, UniProt A0QR29, D117N/D118M/D120N/D145R/D161R/E166K). The series is classed as binding.
Series [2] addresses T1, Au(III) embedded MspA-M. The series is classed as binding. This is another data set of the same source.
Series [3] has as its target [AuCl4]− embedded MspA-M nanopore (Mycolicibacterium smegmatis, UniProt A0QR29, D117N/D118M/D120N/D145R/D161R/E166K).

Several values for one entry are separate records, joined by “and”; a condition that tells them apart may be missing. Equal entries are not always repeated. Entries after “also recorded” stand apart in the source; their conditions may differ. Where two headings read alike, the source gives them in different places.

Seven molecules from patent US20210325406A1 (priority 2018, published 2021) can be followed below.

Sequence of [AuCl4]− embedded MspA-M nanopore (A0QR29 28-211 D117N/D118M/D120N/D145R/D161R/E166K): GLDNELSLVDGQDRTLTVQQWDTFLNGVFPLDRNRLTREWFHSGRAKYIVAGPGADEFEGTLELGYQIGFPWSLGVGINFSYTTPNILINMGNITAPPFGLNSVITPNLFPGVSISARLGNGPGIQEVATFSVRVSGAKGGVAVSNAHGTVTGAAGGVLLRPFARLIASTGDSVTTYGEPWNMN
T1 sequence (A0QR29 28-211 D117N/D118M/D120N/D145R/D161R/E166K limits assumed): as the sequence (A0QR29 28-211 D117N/D118M/D120N/D145R/D161R/E166K) above

For `NC(=O)C[C@H](N)C(=O)O` [L-asparagine, reference compound], the “events like state 3 / extra sensing signals” value on Au(III) embedded MspA-M [1] is on record as “No extra sensing signals; also recorded: no events at all like state 3”.
On to `NCC(=O)O` [L-glycine, reference compound], for which the “events like state 3 / extra sensing signals” value on Au(III) embedded MspA-M [1] is recorded as “No extra sensing signals; also recorded: no events at all like state 3”.
Consider `N[C@@H](CCC(=O)N[C@@H](CS)C(=O)NCC(=O)O)C(=O)O` [L-Glutathione, L-glutathione], for which, at Au(III) embedded MspA-M [2], the “ΔI0−1, GSH/I0” value is 0.167 ± 0.023 and 0.151 ± 0.015 and 0.145 ± 0.015; the “ΔI1−1, GSH” value was 23.3 pA and 29.2 pA and 25.1 pA.
Regarding `N[C@@H](CCS)C(=O)O` [L-Homocysteine, L-homocysteine], at Au(III) embedded MspA-M [2], the “ΔI0−1, Hcy/I0” value is 0.13±0.01 and 0.123 ± 0.01 and 0.129 ± 0.01 and 0.131 ± 0.01; the “ΔI1−1, Hcy” value was 21.8 pA and 22.7 pA and 23.6 pA.
With `CSCC[C@H](N)C(=O)O` [L-Methionine, L-methionine], at Au(III) embedded MspA-M [1], the “absolute blockage amplitude from single L-methionine” value is reported as “approximately 37 pA”; the “amplitude, times larger than previously reported amino acid sensing using engineered α-HL” value is “about 10 times”; the “dwell time of state 3, three independent measurements” value was 10.05 ± 1.73 ms; the “ΔI1-3, three independent measurements” value amounted to 48.67±0.91 pA.
In the case of `N[C@@H](CS)C(=O)O` [L-Cysteine, L-cysteine], at Au(III) embedded MspA-M [2], the “ΔI0−1, cys/I0” value was 0.104±0.008 and 0.105 ± 0.008 and 0.104 ± 0.007; the “ΔI1−1, Cys” value was 13.7 pA and 13.1 pA and 14.2 pA.

B1: 78-nt: 78 nucleotide ssDNA composed of a random sequence (Table 6) (nucleic acid)
DNA: AAGCAGACAGGCGGGAAGGTTTTTTTTCTAGAGGGGAATTGTTATCCGCTCACAATTCCCCTATAGTGAGTCGTATTA
modifications: DNA, backbone and methylation of C not given here
With B1, the ΔI/I0 in series [3] (78-nt ssDNA 4 μM, 10 μM HAuCl4, +100 mV, Blockade level 0) worked out at 0.23 ± 0.027; in series [3] (78-nt, Blockade level 1) it was 0.37 ± 0.042; in series [3] (78-nt, Blockade level 2) it was 0.59 ± 0.019; in series [3] (78-nt, Blockade level 3), 0.88 ± 0.035. For the same molecule, the Mean dwell time in series [3] (78-nt, Blockade level 0) was 0.23 ± 0.025 ms; in series [3] (78-nt, Blockade level 1), 0.97 ± 0.17 ms; in series [3] (78-nt, Blockade level 2), 5.52 ± 1.14 ms; in series [3] (78-nt, Blockade level 3) it was 72.81 ± 13.98 ms.
